In PMC12269843, “The molecular basis of T cell receptor recognition of citrullinated tenascin-C presented by HLA-DR4” (The Journal of Biological Chemistry, 2025) one finds IC50 data, which are given here for one molecule.

Where a SMILES comes first, the peptide text is derived from it.

Common to all, as to experiment: Fluorescence polarization peptide competition assay
One test addresses HLA-DRB1^∗14:02 (Homo sapiens, UniProt P01903+P01911, A100R/A169T/D57E/F76Y/I96L/K41T/L162R/M171V/P40S/Q125H/Q178H/Q39Y/R42S/S66N/T262R/V115G/W38E/Y61H). The settings on record: competition with 20 nM TAMRA-HA, 100 nM HLA-DRB1, 20 nM HLA-DM, 100 mM trisodium citrate pH 5.4, 50 mM NaCl, 5 mM EDTA, 37 °C, 24-72 h, two independent experiments in triplicate, read-out: IC50, competitive binding to DRB1^∗14:02.

For another test, the target named is HLA-DRB1^∗04:05 (Homo sapiens, UniProt P01903+P01911, A100R/A169T/D86S/F76Y/I96L/K127E/L162R/M171V/N62H/P40V/Q125Y/R42H/S133A/S149N/S66Y/V115G/V209L/W38E). The settings on record: competition with 20 nM TAMRA-HA, 100 nM HLA-DRB1, 20 nM HLA-DM, 100 mM trisodium citrate pH 5.4, 50 mM NaCl, 5 mM EDTA, 37 °C, 24-72 h, two independent experiments in triplicate, read-out: IC50, competitive binding to DRB1^∗04:05.

A further test addresses T1, HLA-DRB1^∗04:01 (Homo sapiens, UniProt P01903+P01911, A100K/A169T/F76Y/I96L/K127E/L162R/M171V/N62H/P40V/Q125Y/R42H/S133A/S149N/S66Y/V115G/V209L/W38E).
T1 construct: the extracellular domains of the α-chain and β-chain of HLA-DRB1^∗04:01; Fos/Jun leucine zipper (C); invariant chain (CLIP) peptide, covalently linked; made in house
The settings on record: competition with 20 nM TAMRA-HA, 100 nM HLA-DRB1, 20 nM HLA-DM, 100 mM trisodium citrate pH 5.4, 50 mM NaCl, 5 mM EDTA, 37 °C, 24-72 h, two independent experiments in triplicate, read-out: IC50, competitive binding to DRB1^∗04:01.

A further test deals with HLA-DRB1^∗04:04 (Homo sapiens, UniProt P01903+P01911, A100R/A169T/F76Y/I96L/K127E/L162R/M171V/N62H/P40V/Q125Y/R42H/S133A/S149N/S66Y/V209L/W38E). The settings on record: competition with 20 nM TAMRA-HA, 100 nM HLA-DRB1, 20 nM HLA-DM, 100 mM trisodium citrate pH 5.4, 50 mM NaCl, 5 mM EDTA, 37 °C, 24-72 h, two independent experiments in triplicate, read-out: IC50, competitive binding to DRB1^∗04:04.

A further test deals with HLA-DRB1^∗01:01 (Homo sapiens, UniProt P01903+P01911, A100R/D57E/F55L/F60I/F76Y/I96L/L162R/M171V/P40L/Q125E/R42F/V115G/Y59C). The settings on record: competition with 20 nM TAMRA-HA, 100 nM HLA-DRB1, 20 nM HLA-DM, 100 mM trisodium citrate pH 5.4, 50 mM NaCl, 5 mM EDTA, 37 °C, 24-72 h, two independent experiments in triplicate, read-out: IC50, competitive binding to DRB1^∗01:01.

Description for HLA-DRB1^∗01:01: (§1) The fluorescent polarization was measured by PHERAstar microplate reader (BMG LABTECH) after 24 h, 48 h and 72 h incubation at 37 °C. The peptide binding curves were plotted by non-linear regression in Prism 10 (GraphPad Software, version 10.2.0) using a sigmoidal dose-response curve. […] All data were derived from two independent experiments in triplicate.
Description for HLA-DRB1^∗04:01: as §1
Description for HLA-DRB1^∗04:04: as §1
Description for HLA-DRB1^∗04:05: as §1
Description for HLA-DRB1^∗14:02: as §1

`CC(C)C[C@H](NC(=O)[C@H](CCCNC(N)=O)NC(=O)[C@H](Cc1ccc(O)cc1)NC(=O)[C@H](CCCNC(N)=O)NC(=O)[C@@H](N)CC(=O)O)C(=O)N[C@@H](CC(N)=O)C(=O)N[C@@H](Cc1ccc(O)cc1)C(=O)N[C@@H](CO)C(=O)N[C@@H](CC(C)C)C(=O)N1CCC[C@H]1C(=O)N[C@H](C(=O)NCC(=O)O)[C@@H](C)O` [TNC^1014,1016cit] (HELM PEPTIDE1{D.[Cit].Y.[Cit].L.N.Y.S.L.P.T.G}$$$$V2.0): the IC50 on HLA-DRB1^∗14:02 is 1310 nM; on HLA-DRB1^∗04:05, 4810 nM; on HLA-DRB1^∗04:01 it was 1140 nM; on HLA-DRB1^∗04:04, greater than 300000 nM; on HLA-DRB1^∗01:01, 800 nM.
